These results are taken from patent US20230091225A1, “Bifunctional chimeric heterocyclic compounds for targeted degradation of androgen receptors and use thereof” (HINOVA PHARMACEUTICALS INC., priority 2019, published 2023).

The structures appear in SMILES notation. A value given as a limit tells only on which side of the number the result lay.

In this assay the target is T1, androgen receptor (AR) (Homo sapiens, UniProt P10275).
T1 sequence (P10275 1-920): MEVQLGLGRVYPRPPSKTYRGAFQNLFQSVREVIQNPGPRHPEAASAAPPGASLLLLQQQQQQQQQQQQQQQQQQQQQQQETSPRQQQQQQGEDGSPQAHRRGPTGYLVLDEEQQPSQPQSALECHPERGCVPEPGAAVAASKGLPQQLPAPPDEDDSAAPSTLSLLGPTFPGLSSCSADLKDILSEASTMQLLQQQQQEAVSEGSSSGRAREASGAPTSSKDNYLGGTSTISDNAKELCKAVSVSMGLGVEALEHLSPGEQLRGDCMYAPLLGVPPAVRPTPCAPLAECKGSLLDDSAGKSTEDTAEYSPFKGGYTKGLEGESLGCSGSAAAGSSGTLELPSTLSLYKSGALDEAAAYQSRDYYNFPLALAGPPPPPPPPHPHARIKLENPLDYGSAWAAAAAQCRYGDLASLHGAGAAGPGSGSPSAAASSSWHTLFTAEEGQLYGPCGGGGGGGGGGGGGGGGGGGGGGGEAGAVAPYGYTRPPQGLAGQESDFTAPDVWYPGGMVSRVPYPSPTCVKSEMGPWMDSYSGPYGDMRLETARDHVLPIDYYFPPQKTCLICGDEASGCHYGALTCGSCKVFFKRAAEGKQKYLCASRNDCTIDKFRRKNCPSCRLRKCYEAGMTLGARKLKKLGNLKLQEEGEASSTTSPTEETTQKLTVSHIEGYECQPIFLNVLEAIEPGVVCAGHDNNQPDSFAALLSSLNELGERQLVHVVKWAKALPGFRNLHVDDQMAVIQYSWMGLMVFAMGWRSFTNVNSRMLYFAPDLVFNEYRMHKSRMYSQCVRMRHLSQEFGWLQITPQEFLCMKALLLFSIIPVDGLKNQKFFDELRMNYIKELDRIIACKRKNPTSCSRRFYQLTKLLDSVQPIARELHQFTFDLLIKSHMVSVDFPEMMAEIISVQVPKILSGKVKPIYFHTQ
Nature of the assay: Degradation of androgen receptor (AR) protein in VCaP cells by ELISA. Format: cell-based. The settings on record: for DC50: read-out: DC50; for Dmax: VCaP, read-out: Dmax (%); for inhibition at 0.1 µM: percentage of degraded AR at 100 nM, read-out: % degradation. (An ELISA detects its analyte on a solid surface through an enzyme-linked reagent.)

The mark [1] stands for this setting: AR degradation, VCaP cells, 16 h, ELISA, Table 3-1.

As a reminder, the DC50 is the concentration at which degradation of the target reaches its halfway point. For orientation: Dmax means the greatest extent of degradation seen.

With `N#Cc1ccc(O[C@H]2CC[C@H](NC(=O)c3ccc(N4CC5(CCN(CC6CCN(c7ccc8c(c7)C(=O)N(C7CCC(=O)NC7=O)C8=O)CC6)CC5)C4)cc3)CC2)cc1Cl` (stereo partly shown) [Compound 194, N-((1r,4r)-4-(3-chloro-4-cyanophenoxy)cyclohexyl)-4-(7-((1-(2-(2,6-dioxopiperidin-3-yl)-1,3-dioxoisoindolin-5-yl)piperidine-4-yl)methyl)-2,7-diazaspiro[3.5]nonan-2-yl)benzamide], under setting [1], the DC50 was under 10 nM and the Dmax was over 80%. On to `N#Cc1ccc(OC2CCC(NC(=O)c3ccc(N4CCC(CN5CCC6(CC5)CN(c5ccc7c(c5)CN(C5CCC(=O)NC5=O)C7=O)C6)CC4)nn3)CC2)cc1Cl` (stereo not shown) [Compound 196, N-((1r,4r)-4-(3-chloro-4-cyanophenoxy)cyclohexyl)-6-(4-((2-(2-(2,6-dioxopiperidin-3-yl)-1-oxoisoindolin-5-yl)-2,7-diazaspiro[3.5]nonan-7-yl)methyl)piperidin-1-yl)pyridazine-3-formamide], for which, under setting [1], the “Dmax (%)” value is on record as “++++ (>80%)” and the DC50 is under 10 nM. On to `[2H]C([2H])([2H])Oc1cc(O[C@H]2CC[C@H](NC(=O)c3cnc(N4CCC(CN5CCC6(CC5)CN(c5ccc7c(c5)C(=O)N(C5CCC(=O)NC5=O)C7=O)C6)CC4)nn3)CC2)ccc1C#N` (stereo partly shown) [Compound 197, N-((1r,4r)-4-(4-cyano-3-(methoxy-d3)phenoxy)cyclohexyl)-3-(4-((2-(2-(2,6-dioxopiperidin-3-yl)-1,3-dioxoisoindolin-5-yl)-2,7-diazaspiro[3.5]nonan-7-yl)methyl)piperidin-1-yl)-1,2,4-triazine-6-carboxamide], for which the inhibition at 0.1 µM (VCaP cells, 16 h, ELISA) was over 80%. Consider `CC1(C)[C@H](Oc2ccc(C#N)c(Cl)c2)C(C)(C)[C@H]1N1Cc2nc(N3CCC(CN4CCN(c5cc6c(cc5F)C(=O)N(C5CCC(=O)NC5=O)C6)CC4)CC3)ccc2C1=O` (stereo partly shown) [Compound 206], for which, where the note is “VCaP cells, 16 h, ELISA”, the inhibition at 0.1 µM is 25 to 49%.

In the case of `CC1(C)C(Oc2ccc(C#N)c(Cl)c2)C(C)(C)C1N1Cc2nc(N3CCC(CN4CCN(c5cc6c(cc5F)C(=O)N([C@@H]5CCC(=O)NC5=O)C6)CC4)CC3)ccc2C1=O` (stereo partly shown) [Compound 212], the “% degradation” value was “C (key: A: >80%; B: 79%-50%; C: 49%-25%; D: <25%)”. With `N#Cc1ccc(O[C@H]2CC[C@H](NC(=O)c3cnc(N4CCC(CN5CCC6(CC5)CN(c5cc7c(cc5F)C(=O)N(C5CCC(=O)NC5=O)C7=O)C6)CC4)cn3)CC2)cc1Cl` (stereo partly shown) [Compound 233], under setting [1], the DC50 was under 10 nM and the Dmax was over 80%. As to `N#Cc1ccc(OC2CCC(NC(=O)c3cnc(N4CCC(CN5CC6(CCN(c7cc8c(cc7F)C(=O)N(C7CCC(=O)NC7=O)C8=O)CC6)C5)CC4)cn3)CC2)cc1Cl` (stereo not shown) [Compound 234, N-((1r,4r)-4-(3-chloro-4-cyanophenoxy)cyclohexyl)-5-(4-((7-(2,6-dioxopiperidin-3-yl)-6-fluoro-1,3-dioxoisoindolin-5-yl)-2,7-diazaspiro[3.5]nonan-2-yl)methyl)piperidin-1-yl)pyrazine-2-carboxamide], under setting [1], the DC50 is under 10 nM and the Dmax is over 80%.

For the compound `N#Cc1ccc(OC2CCC(NC(=O)c3cnc(N4CC5(CCN(CC6CCN(c7cc8c(cc7F)C(=O)N(C7CCC(=O)NC7=O)C8=O)CC6)CC5)C4)cn3)CC2)cc1Cl` (stereo not shown) [Compound 235, N-((1r,4r)-4-(3-chloro-4-cyanophenoxy)cyclohexyl)-5-(7-((1-(2-(2,6-dioxopiperidin-3-yl)-6-fluoro-1,3-dioxoisoindolin-5-yl)piperidine-4-yl)methyl)-2,7-diazaspiro[3.5]nonan-2-yl)pyrazine-2-carboxamide], under setting [1], the DC50 is under 10 nM and the Dmax was over 80%.
